Test [1] deals with erythropoietin. Description: Plasma EPO in mice after oral gavage. To be noted: mouse plasma, oral gavage 6-60 mg/kg, six hours. The class given is in vivo, Swiss Webster mice. The protocol:
(§1) In another series of experiments, male Swiss Webster mice (29-34 g) were administered various compounds of the present invention via oral gavage using a ball-tipped gavage needle. Animals treated by oral gavage received a 4-10 ml/kg volume of either 0.5% carboxymethyl cellulose with or without 0.1% Polysorbate 80 (vehicle control) or various doses (6-60 mg/kg) of a compound of the present invention in 0.5% CMC, with or without 0.1% Polysorbate 80. Blood samples were collected and tissues were processed as described above. Six hours after injection, the animals were anesthetized and exsanguinated.
(§2) Plasma samples were collected in EDTA and heparin coated microtainer tubes. Plasma samples were assayed for erythropoietin and VEGF using commercially-available ELISA kits purchased from R & D Systems (Minneapolis Minn.).

In test [2] the test system is VEGF. Description: Plasma VEGF in mice after oral gavage. The class given is in vivo, Swiss Webster mice. To be noted: mouse plasma, oral gavage 6-60 mg/kg, six hours. How it is done:
as §1, §2

Test [3] deals with erythropoietin (EPO). Briefly: EPO expression in Kelly neuroblastoma cells. The class given is cell-based. To be noted: for EPO: conditioned media after overnight incubation. The method, boiled down: (§3)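 Kelly neuroblastoma cells treated overnight with compound, 1% DMSO as negative control. EPO and VEGF secreted into conditioned media measured by QUANTIKINE immunoassay.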
Test [4] concerns erythropoietin (EPO). Description: EPO expression in Hep3B cells (QUANTIKINE immunoassay of conditioned media). The following applies: for EPO: conditioned media after overnight incubation with compound; for Fold Increase Over Control: EPO, vs 1% DMSO control. The class given is cell-based, Human. Put shortly: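 Confluent Hep3B cells were switched to OPTI-MEM for about 24 h (20% O2, 5% CO2, 37 °C), then treated overnight with compound or 1% DMSO vehicle. EPO secreted into the conditioned medium was measured by QUANTIKINE immunoassay.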

The subject of test [5] is vascular endothelial growth factor (VEGF). Description: VEGF expression in Kelly neuroblastoma cells. The class given is cell-based. To be noted: for VEGF: conditioned media after overnight incubation. Put shortly:
as §3

Test [6] relates to erythropoietin. Briefly: Plasma EPO in mice after intravenous injection. The class given is in vivo, Swiss Webster mice. The following applies: mouse plasma, 20 mg/kg i.v., four hours after injection; for fold induction at 20 mg/kg: iv, 4 h, read-out: EPO Fold Increase. The method, boiled down: (§4)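 Male Swiss Webster mice (29-34 g) received 20 mg/kg compound or vehicle by tail-vein injection in 5% dextrose with equimolar NaOH or meglumine. Plasma was collected 4 h later, and EPO and VEGF were measured by ELISA.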

The test system of test [7] is VEGF. Briefly: Plasma VEGF in mice after intravenous injection. The class given is in vivo, Swiss Webster mice. The following applies: mouse plasma, 20 mg/kg i.v., four hours after injection; for fold induction at 20 mg/kg: iv, 4 h, read-out: VEGF Fold Increase. The method, boiled down: as §4
Test [8] concerns C57BL/6 mice, permanent occlusion of the MCA. Briefly: Permanent middle cerebral artery occlusion (pMCAO) in C57BL/6 mice: infarct volume and edema. The following applies: Mus musculus, iv, 24 h, C57BL/6 mice pMCAO, 20-60 mg/kg i.v., compound given 0 hr; 24 hours after MCA occlusion; read-out: Percent Reduction in Infarct Volume. It is filed as in vivo. The protocol:
The effect of compounds of the present invention on infarct volume and edema associated with stroke was examined in an animal model of ischemic stroke. In these studies, mice were subjected to permanent occlusion of the middle cerebral artery. Mice were anesthetized intraperitoneally with avertin (0.5 mg/g). Mice were then immobilized in a rodent stereotaxic frame (Kopf Instruments, Tujunga Calif.) and maintained with avertin as needed. The surgical area of the head was swabbed with 70% ethanol and a lateral incision was made between the right orbit and the right ear. […] The distal course of the middle cerebral artery (MCA) was visible through the translucent skull. A small burr-hole craniotomy was performed with a micro-drill (Fine Science Tools, Foster City Calif.). The meninges/dura was removed and the MCA was coagulated by bipolar diathermy. The muscle and soft tissue were replaced and the incision closed with vet-bond adhesive (3M, St. Paul Minn.). These studies were performed in two different mouse models of pMCAO as described below.
In one series of experiments, male C57BL/6 mice (25-35 g) were subjected to permanent occlusion of the MCA as described above. Compounds of the present invention were administered by intravenous injection at various times before or after MCA occlusion (see Table 7). Animals administered compound by intravenous injection received a 6 ml/kg volume of either 5% Dextrose with an equimolar amount of Meglumine (vehicle control) or 20-60 mg/kg of a compound of the present invention in 5% dextrose with an equimolar amount of Meglumine. Body temperature of the animals was maintained by use of a heating pad both during and after surgery. Twenty-four hours after MCA occlusion animals were euthanized with CO2 and their brains removed. After removal, the brain was sliced in 7 coronal sections, each 1 mm thick. The sections were placed rostral side down in a petri dish and stained with 1% Triphenyl tetrazolium chloride for 20 minutes at 37° C. for determination of infarct volume. Brain sections were then digitally photographed and analyzed for changes in infarct volume and extent of edema. Infarct volumes were determined by measuring the infarcted (i.e., non-stained) areas of each brain section and multiplying this value by the section thickness. Extent of edema was determined by the net increase in volume of the ipsilateral cortex compared to that of the contralateral cortex of brain sections.
The effect of compounds of the present invention administered at various times following the onset of stroke was examined further as follows. In these studies, changes in infarct volume were measured using an animal model of stroke when compounds of the present invention were administered from 0 to 8 hours following permanent MCA occlusion. In one series of experiments, male C57BL/6 mice (25-35 g) were subjected to permanent occlusion of the MCA as described above. Compound F was administered to the animals by a single intravenous bolus injection at various times up to 5 hours after MCA occlusion (see Table 8 below). Animals administered compound by intravenous injection received a 6 ml/kg volume of either 5% Dextrose with an equimolar amount of NaOH (vehicle control) or 60 mg/kg of Compound F in 5% dextrose with an equimolar amount of NaOH. Body temperature of the animals was maintained by use of a heating pad both during and after surgery. Changes in infarct volumes were determined as described above.
In another set of experiments, male C57BL/6 mice (25-35 g) were subjected to permanent occlusion of the MCA as described above. Compound F was administered by single intravenous bolus injection at various times up to 8 hours after MCA occlusion (see Table 9 below). Animals administered compound by intravenous injection received a 6 ml/kg volume of either 5% Dextrose with an equimolar amount of Meglumine (vehicle control) or 60 mg/kg of Compound F in 5% dextrose with an equimolar amount of Meglumine. […]

`CC(NC(=O)c1ncc2cc(Sc3ccccc3)ccc2c1O)C(=O)O` (stereo not shown) [Compound Y, 2-[(4-Hydroxy-7-phenylsulfanyl-isoquinoline-3-carbonyl)-amino]-propionic acid]: the “EPO Fold Increase” value with erythropoietin [1] turned out to be 8.85. In addition, in the test on erythropoietin [1] (human EPO ELISA kit (*)), the EPO turned out to be 11.5 mIU/ml. In the test with VEGF [2], the VEGF stood at 52.7 pg/mL and the “VEGF Fold Increase” value was determined as 2.28.

As for `CC(NC(=O)c1ncc2cc(Oc3ccccc3)ccc2c1O)C(=O)O` (stereo not shown) [Compound I, 2-[(4-Hydroxy-7-phenoxy-isoquinoline-3-carbonyl)-amino]-propionic acid], the “EPO Fold Increase” value came out at 3.4 in the test on erythropoietin (EPO) [3] and 16.46 in the test with erythropoietin [1]. The EPO in the test on erythropoietin (EPO) [3] turned out to be 14.8 mIU/ml; with erythropoietin (EPO) [4], 41.0 mIU/ml; with erythropoietin [1] (human EPO ELISA kit (*)), 21.4 mIU/ml; in the test with erythropoietin [6] (human EPO ELISA kit (*)), 62.1 mIU/ml. Besides, the “VEGF Fold Increase” value in test [5] is 7.2; in the test on VEGF [2], 2.71. The results for the VEGF (in test [5]; in the test on VEGF [2]; in the test on VEGF [7]) were 2370.0 pg/mL, 62.7 pg/mL and 77.8 pg/mL, respectively. Moreover, the results for the fold induction at 20 mg/kg in the test with erythropoietin [6] and in the test on VEGF [7] were 155 and 2.13, respectively.

`O=C(O)CNC(=O)c1ncc2cc(Oc3ccc4c(c3)CCO4)ccc2c1O` [Compound X, {[7-(2,3-Dihydro-benzofuran-5-yloxy)-4-hydroxy-isoquinoline-3-carbonyl]-amino}-acetic acid]: the inhibition in vivo at up to 20 mg/kg in test [8] was found to be 36%. For the same compound, the results for the “EPO Fold Increase” value with erythropoietin (EPO) [3] and in the test with erythropoietin [1] were 13.76 and 5.86, respectively. Moreover, the EPO in the test with erythropoietin (EPO) [3] stood at 260.1 mIU/ml; in the test with erythropoietin (EPO) [4], 126.2 mIU/ml; in the test with erythropoietin [1] (mouse EPO ELISA kit (**)), 41 pg/mL; in the test on erythropoietin [6] (mouse EPO ELISA kit (**)), 183 pg/mL. The “Fold Increase Over Control” value in the test on erythropoietin (EPO) [4] is given as 19.0. Moreover, the “VEGF Fold Increase” value was found to be 3.9 in test [5] and 1.16 with VEGF [2]. The VEGF in test [5] amounted to 5751 pg/mL; with VEGF [2] it was 36 pg/mL; with VEGF [7], 48 pg/mL. Besides, the fold induction at 20 mg/kg in the test on VEGF [7] was 2.4.

With `O=C(O)CNC(=O)c1ncc2cc(Oc3ccc4c(c3)OCO4)ccc2c1O` [Compound O, {[7-(Benzo[1,3]dioxol-5-yloxy)-4-hydroxy-isoquinoline-3-carbonyl]-amino}-acetic acid], the inhibition in vivo at up to 20 mg/kg in test [8] stood at 31%. The entries for the “EPO Fold Increase” value in the test with erythropoietin (EPO) [3] and in the test on erythropoietin [1] were 7.93 and 11.87, respectively. Besides, the EPO in the test on erythropoietin (EPO) [3] is 149.8 mIU/ml; with erythropoietin (EPO) [4] it was 97.4 mIU/ml; with erythropoietin [1] (mouse EPO ELISA kit (**)), 83.1 pg/mL; with erythropoietin [6] (mouse EPO ELISA kit (**)), 157 pg/mL. Also, the “Fold Increase Over Control” value in the test on erythropoietin (EPO) [4] is recorded as 14.7. The “VEGF Fold Increase” value came out at 3.6 in test [5] and 1.48 in the test on VEGF [2]. In addition, the VEGF was 5235 pg/mL in test [5], 46 pg/mL with VEGF [2] and 64 pg/mL with VEGF [7]. Further, the fold induction at 20 mg/kg in the test on erythropoietin [6] came to 174; in the test with VEGF [7] it was 2.21.

On to `C#Cc1nc(C(=O)NCC(=O)O)c(O)c2ccsc12` [Compound M, [(7-Ethynyl-4-hydroxy-thieno[2,3-c]pyridine-5-carbonyl)-amino]-acetic acid], for which the “EPO Fold Increase” value was 285 in the test on erythropoietin (EPO) [3] and 1.26 in the test with erythropoietin [1]. In addition, the EPO amounted to 57 mIU/ml in the test with erythropoietin (EPO) [3], 64.1 mIU/ml with erythropoietin (EPO) [4], 8.8 pg/mL with erythropoietin [1] (mouse EPO ELISA kit (**)) and 161.6 pg/mL with erythropoietin [6] (mouse EPO ELISA kit (**)). The “Fold Increase Over Control” value with erythropoietin (EPO) [4] came to 11.6. Further, the entries for the “VEGF Fold Increase” value (in test [5]; with VEGF [2]) were 2.0 and 1.23, respectively. The figures for the VEGF (in test [5]; with VEGF [2]; with VEGF [7]) were 1436 pg/mL, 38 pg/mL and 38 pg/mL, respectively. Further, the fold induction at 20 mg/kg with erythropoietin [6] turned out to be 180; in the test on VEGF [7], 1.31.

Take `Cc1nc2ccc(Oc3ccc4c(O)c(C(=O)NCC(=O)O)nc(C)c4c3)cc2o1` [Compound AF, {[4-Hydroxy-1-methyl-7-(2-methyl-benzooxazol-6-yloxy)-isoquinoline-3-carbonyl]-amino}-acetic acid]: the inhibition in vivo at up to 20 mg/kg in test [8] is 21%. Also, in the test on erythropoietin (EPO) [3], the “EPO Fold Increase” value turned out to be 12.24 and the EPO worked out at 231.3 mIU/ml. Moreover, in the test with erythropoietin (EPO) [4], the “Fold Increase Over Control” value turned out to be 15.3 and the EPO was 101.6 mIU/ml. Further, in test [5], the “VEGF Fold Increase” value is reported as 3.5 and the VEGF came to 5124 pg/mL. In addition, the fold induction at 20 mg/kg in the test with erythropoietin [6] came out at 21.3. The same compound registered an EPO in the test on erythropoietin [6] (mouse EPO ELISA kit (**)) of 192 pg/mL. Besides, in the test with VEGF [7], the fold induction at 20 mg/kg stood at 2.83 and the VEGF worked out at 82 pg/mL.

Turning to `Cc1nc(C(=O)NCC(=O)O)c(O)c2cc(-c3ccc(F)cc3)sc12` [Compound P, {[2-(4-Fluoro-phenyl)-4-hydroxy-7-methyl-thieno[2,3-c]pyridine-5-carbonyl]-amino}-acetic acid], the inhibition in vivo at up to 20 mg/kg in test [8] was 37%. In the test on erythropoietin (EPO) [3], the “EPO Fold Increase” value was found to be 13.90. In addition, the values for the EPO in the test with erythropoietin (EPO) [3], in the test with erythropoietin (EPO) [4] and in the test with erythropoietin [6] (mouse EPO ELISA kit (**)) were 262.8 mIU/ml, 54.9 mIU/ml and 62.3 pg/mL, respectively. For the same compound, in the test on erythropoietin (EPO) [4], the “Fold Increase Over Control” value came out at 7.2. Moreover, the “VEGF Fold Increase” value in test [5] came out at 5.1. For the same compound, the VEGF worked out at 7453 pg/mL in test [5] and 45 pg/mL in the test with VEGF [7]. The results for the fold induction at 20 mg/kg in the test with erythropoietin [6] and in the test on VEGF [7] were 5.88 and 1.15, respectively.

Source of the values: US9775902B2, “Compounds and methods for treatment of stroke” (FIBROGEN, INC, priority 2006, dated 2017).
